Measured values published in patent US8858985B2, “Films comprising a liquid-absorbant inner layer, an antimicrobial material and an impermeable outer layer” (E I du Pont de Nemours and Company, priority 2004, dated 2014).

Key:
L. monocytogenes = experiment: film on lawn assay; format: cell-based
Protocol: Films of Example 1 and Example 2 at 150μ in thickness were cut into 15 mm by 15 mm samples placed onto aluminum foil, and exposed to UV light in a laminar flow hood for 4 to 7 minutes. The samples were then transferred from foil to various solutions as described in Table 6 to soak for 12 to 24 hours at room temperature.
(§1) For each antimicrobial solution concentration, a spot on lawn assay procedure was first conducted on agar plates to assess the efficacy of the solution to colony control. In this procedure, the TSA agar plates were inoculated with L. monocytogenes 15313 at a level of 10E+08 cfu/ml through an Autoplate 4000 model from Spiral Biotech. A volumetric pipette pump was then used to place three 10-μl spots of an antimicrobial solution onto appropriate regions of the test plate. Separately, another volumetric pipette pump was used to place 10 μl of a control solution (i.e., the solution in which the antimicrobial agent is dissolved). Three such agar plates were prepared for each concentration of antimicrobial solution. After spot placement, the plates were allowed to stand undisturbed for 10 to 30 minutes in a laminar flow hood before incubation at 37° C. for at least 24 hours. The resultant zones of inhibition were measured using a dial caliper (Brown and Sharpe, accuracy to 0.02 mm) with each zone measured twice on a 90° axis. Three such spots (for the antimicrobial treated solution) were so measured per plate, with three plates per condition to provide 18 such measurements. […] In the film on lawn procedure, 15 mm×15 mm films of example 1 and 2 were placed in freshly made up solutions for 12 to 24 hours at room temperature and then removed with a pair of flame-sterilized ocular forceps, allowed to drip dry, then placed for 60 seconds on a sterile Petri-dish before positioning on agar plates in a film on lawn assay procedure. The TSA agar plates had been prepared by inoculating with L. monocytogenes at a level of 10E+08 cfu/ml through an Autoplate 4000 model from Spiral Biotech. Two such films were so placed on the prepared TSA agar plates. A third 15 mm×15 mm film was soaked under the same conditions in a control solution (the solution without the antimicrobial agent) and placed in a third region of the plate. Three such plates were prepared in this manner for each concentration of antimicrobial agent. After film placement, the plates were allowed to stand undisturbed for 10 to 30 minutes in a laminar flow hood before incubation at 37° C. for at least 24 hours. The resultant zones of inhibition were measured using a dial caliper (Brown and Sharpe, accuracy to 0.02 mm) with each zone measured twice on a 90° axis. Two such films (for the antimicrobial treated film) were so measured per plate, with three plates per condition to provide 12 such measurements. No zones of inhibition were recorded for the control films.

L. monocytogenes 15313 = experiment: spot on lawn assay; format: cell-based; conditions: 10-μl spots
Excerpt: as §1, with “Two such films were so placed on the prepared TSA agar plates. A third 15 mm×15 mm film was soaked under the same conditions in a control solution (the solution without the antimicrobial agent) and placed in a third region of the plate. Three such plates were prepared in this manner for each concentration of antimicrobial agent. After film placement, the plates were allowed to stand undisturbed for 10 to 30 minutes in a laminar flow hood before incubation at 37° C. for at least 24 hours.” left out

SMILES | Group averages of Inhibition Zones (mm), Film on Lawn Assay Example 1 (L. monocytogenes; 15 mm x 15 mm film of Example 1 soaked 12-24 h in 0.75 wt % in Ethanol/Water (36/63.25)) | Group averages of Inhibition Zones (mm), Film on Lawn Assay Example 2 (L. monocytogenes; 15 mm x 15 mm film of Example 2 soaked 12-24 h in 0.75 wt % in Ethanol/Water (36/63.25)) | Group averages of Inhibition Zones (mm), Film on Lawn Assay Example 1 (L. monocytogenes; film of Example 1 soaked in 1.5 wt % in Ethanol/Water (36/62.5)) | Group averages of Inhibition Zones (mm), Film on Lawn Assay Example 1 (L. monocytogenes; film of Example 1 soaked in 3.0 wt % in Ethanol/Water (36/61)) | Group averages of Inhibition Zones (mm), Film on Lawn Assay Example 2 (L. monocytogenes; film of Example 2 soaked in 1.5 wt % in Ethanol/Water (36/62.5)) | Group averages of Inhibition Zones (mm), Film on Lawn Assay Example 2 (L. monocytogenes; film of Example 2 soaked in 3.0 wt % in Ethanol/Water (36/61)) | Group averages of Inhibition Zones (mm), Spot on Lawn Assay (L. monocytogenes 15313; 0.75 wt % in Ethanol/Water (36/63.25)) | Group averages of Inhibition Zones (mm), Spot on Lawn Assay (L. monocytogenes 15313; 1.5 wt % in Ethanol/Water (36/62.5)) | Group averages of Inhibition Zones (mm), Spot on Lawn Assay (L. monocytogenes 15313; 3.0 wt % in Ethanol/Water (36/61)) | Group averages of Inhibition Zones (mm), Film on Lawn Assay Example 1 (L. monocytogenes; film of Example 1 soaked in 5 wt % in Water (95)) | Group averages of Inhibition Zones (mm), Film on Lawn Assay Example 1 (L. monocytogenes; film of Example 1 soaked in 7.5 wt % in Water (92.5)) | Group averages of Inhibition Zones (mm), Film on Lawn Assay Example 1 (L. monocytogenes; film of Example 1 soaked in 10 wt % in Water (90)) | Group averages of Inhibition Zones (mm), Film on Lawn Assay Example 2 (L. monocytogenes; film of Example 2 soaked in 5 wt % in Water (95)) | Group averages of Inhibition Zones (mm), Film on Lawn Assay Example 2 (L. monocytogenes; film of Example 2 soaked in 7.5 wt % in Water (92.5)) | Group averages of Inhibition Zones (mm), Film on Lawn Assay Example 2 (L. monocytogenes; film of Example 2 soaked in 10 wt % in Water (90))
O=C(O)c1ccccc1 [Benzoic acid] | 21.55 ± 0.77 mm | 23.49 ± 1.47 mm | 25.92 ± 1.02 mm | 25.76 ± 0.41 mm | 27.85 ± 0.96 mm | 27.6 ± 2.03 mm | 7.31 ± 0.91 mm | 7.70 ± 0.61 mm | 8.64 ± 0.76 mm |  |  |  |  |  | 
O=C(O)CC(O)(CC(=O)O)C(=O)O [Citric acid] |  |  |  |  |  |  |  |  |  | Slight^3 | 19.21 ± 0.25 mm | 21.00 ± 0.63 mm | 0 mm | 0 mm | 0 mm
